According to paper PMC7221154, “Cloning and Expression of Cockroach α7 Nicotinic Acetylcholine Receptor Subunit” (Frontiers in Physiology, 2020):

Legend:
Pameα7 [1] = biological target: T1, Pameα7 (Periplaneta americana, UniProt A0A5P8U3L1); assay: two-electrode voltage clamp, Xenopus oocytes, agonist currents; type: cell-based; conditions: cDNA-injected oocytes without RIC-3, -80 mV, 0.5 μM atropine, 20-22 °C, normalized to 10 mM nicotine, unreliable (native currents at 5 and 10 mM nicotine)
T1 construct: cDNA in pGEM-HEJUEL injected in Xenopus laevis oocytes; homomeric receptor (pentamer by known biology)
T1 sequence (A0A5P8U3L1 42-518): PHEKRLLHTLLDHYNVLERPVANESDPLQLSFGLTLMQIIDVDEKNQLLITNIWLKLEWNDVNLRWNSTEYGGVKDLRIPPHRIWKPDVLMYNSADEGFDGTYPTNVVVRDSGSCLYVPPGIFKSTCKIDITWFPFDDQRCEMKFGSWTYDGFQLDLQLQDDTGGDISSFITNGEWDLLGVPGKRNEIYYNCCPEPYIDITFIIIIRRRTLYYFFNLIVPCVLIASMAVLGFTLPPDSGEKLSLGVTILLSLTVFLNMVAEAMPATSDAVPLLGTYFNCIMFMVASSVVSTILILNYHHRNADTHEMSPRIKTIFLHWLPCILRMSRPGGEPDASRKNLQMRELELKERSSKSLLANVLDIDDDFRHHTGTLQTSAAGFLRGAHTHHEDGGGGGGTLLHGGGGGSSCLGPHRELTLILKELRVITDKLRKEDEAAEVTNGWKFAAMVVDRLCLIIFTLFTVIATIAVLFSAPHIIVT

Pameα7 [2] = biological target: T1, Pameα7; assay: as above; type: cell-based; conditions: 10 mM, -80 mV, 0.5 μM atropine, EC50 could not be calculated, unreliable (low currents)

Structure (SMILES)	EC50 (Pameα7 [1])	two-electrode voltage clamp, Xenopus oocytes, agonist currents (Pameα7 [2])
CN1CCC[C@H]1c1cccnc1 [nicotine]	790 µM	
CC(=O)OCC[N+](C)(C)C [acetylcholine]		ACh and nicotine induced inward currents
